Measured values: patent publication US20050215548A1 (Cyclacel Limited, priority 2002, published 2005)
pIC50: −log10 of the molar value.

Tests used:
Assay type in all cases: cell-based, human
SJSA-1 = assay: Combination treatment with cisplatin or etoposide, MTT, SJSA-1
From the text: It is well established that radiotherapy and most current forms of chemotherapy cause extensive genetic damage and induction of the p53-dependent apoptotic pathway, which determines the important role of this tumor suppressor protein in cancer therapy. HDM2, on the other hand, as a transcriptional product and negative regulator pf p53, would destabilise p53 and diminish its pro-apoptotic function. Inhibitors of the p53-HDM2 negative feedback loop (e.g. compounds disrupting the p53-HDM2 complex) are expected to synergise with cytotoxic agents for induction of p53 and subsequent apoptosis. […] Both chemotherapeutic agents were used in the concentration range of 100-0.19 μM.

[1] = test system: key proteins in the HDM2 pathway; assay: SDS-PAGE and immunoblotting of key proteins in the HDM2 pathway
From the text: Equal amounts of cell lysate were separated by SDS-PAGE and analysed by immunoblotting using the indicated antibodies. An estimation of the extent of cell rounding is indicated above each lane. […] (B) The effect of compound 2 on the levels of the cell cycle proteins in AGS cells (wild-type 53). […] Equal amounts of cell lysate were separated by SDS-PAGE and analysed by immunoblotting using the indicated antibodies. An estimation of the extent of cell rounding is indicated above each lane. (C) The effect of negative control compound (refer Example 10), compound 2, cisplatin, and anisomycin on the levels of key proteins in MCF7 cells. […] Cisplatinum and anisomycin (a transcription inhibitor) treatments were with 50 μM or 37 μM, respectively. Cells were harvested at various time points; afterwards lysates were prepared and separated by SDS-PAGE and analysed by immunoblotting. The proteins detected are indicated. The extent of rounded or floating cells and the percentage viable cells were assessed. […] Equal amounts of cell lysate were separated by SDS-PAGE and analysed by immunoblotting using a range of antibodies. An estimation of the extent of cell rounding is indicated above each lane. […] SJSA1 cells were treated with 5 times [IC50] of compound 2 and collected at the indicated time points. Equal amounts of cell lysate were separated by SDS-PAGE and analysed by immunoblotting using a range of antibodies. An estimation of the extent of cell rounding is indicated above each lane.
Many types of cellular stress converge on the p53 pathway and induce its activity. […] The biological effect of bisarylsufonamides on cellular level was studies using representative compounds (mainly compound 2) and number of cell lines with different HDM2 and p53 status. These were overexpressing Hdm2 (SJSA1—osteosarcoma), wild type p53 and normal levels of HDM2 (AGS—gastric adenocarcinoma, MCF7—breast adenocarcinoma), or p53 null, low levels of HDM2 (H1299—large cell lung carcinoma).
Cells were lysed and equal amounts were analysed by SDS-polyacrylamide gel electrophoresis (SDS-PAGE) and immunoblotting.

[2] = test system: AGS, H1299, MCF7 or SJSA1 cells; assay: Cell morphology (cell rounding); details: five times IC50
From the text: Equal amounts of cell lysate were separated by SDS-PAGE and analysed by immunoblotting using the indicated antibodies. An estimation of the extent of cell rounding is indicated above each lane. The arrow indicates the position of a 85-kDa cleavage product of PARP, indicative of apoptosis. (B) The effect of compound 2 on the levels of the cell cycle proteins in AGS cells (wild-type 53). […] Equal amounts of cell lysate were separated by SDS-PAGE and analysed by immunoblotting using the indicated antibodies. An estimation of the extent of cell rounding is indicated above each lane. (C) The effect of negative control compound (refer Example 10), compound 2, cisplatin, and anisomycin on the levels of key proteins in MCF7 cells. […] Cisplatinum and anisomycin (a transcription inhibitor) treatments were with 50 μM or 37 μM, respectively. Cells were harvested at various time points; afterwards lysates were prepared and separated by SDS-PAGE and analysed by immunoblotting. The proteins detected are indicated. The extent of rounded or floating cells and the percentage viable cells were assessed. […] Equal amounts of cell lysate were separated by SDS-PAGE and analysed by immunoblotting using a range of antibodies. An estimation of the extent of cell rounding is indicated above each lane. […] SJSA1 cells were treated with 5 times [IC50] of compound 2 and collected at the indicated time points. Equal amounts of cell lysate were separated by SDS-PAGE and analysed by immunoblotting using a range of antibodies. An estimation of the extent of cell rounding is indicated above each lane.
Cells were treated with 5 times [IC50] of compound 2 and collected at various time points. The percentage of rounded cells was counted before cells were trypsinised and counted for cell viability using trypan blue.
Cells were lysed and equal amounts were analysed by SDS-polyacrylamide gel electrophoresis (SDS-PAGE) and immunoblotting. […] The reduction in E2F-1 levels correlated with reduction in E2F transcriptional activity as determined by an E2F-dependent luciferase reporter assay (refer Example 6).

MCF7 or H1299 cells = assay: Cell cycle distribution, propidium iodide flow cytometry; details: 5 times IC50
Procedure: Cells were stained with propidium iodide and the cell cycle position was determined using a flow cytometer.

H1299 cells = assay: Caspase activity (casp ACE assay), H1299; details: five times the IC50
Procedure: In more detail: (A) Cells were treated with […] [IC50] of compound 2 or cisplatinum and collected at the time points indicated. Cell lysates were prepared, the caspase activity was determined using the casp ACE assay and values were plotted on a graph. (B) Cells were treated with 5 times [IC50] of compound 2 or cisplatinum and collected at the time points indicated. AGS cells were also incubated with compound 2 in the presence of a caspase inhibitor Z-VAD.fmk. Cell lysates were prepared, the caspase activity was determined using the casp ACE assay and values were plotted on a graph.
To characterise the apoptosis-inducing properties of bisarylsulfonamides caspase ⅓ activty was measured. AGS or H1299 cells were treated with a low concentration of compound 2 or cisplatin corresponding to twice the IC50 value (FIG. 6A). Morphological changes were detected in 10-20% of cells by 72 hours corresponding to an induction of caspase activity first detected at 48 hours, increasing by 72 hours. We also treated AGS and H1299 cells with higher concentrations corresponding to five times the IC50 (FIG. 6B). In this experiment we included a […], Z-VAD.fmk to determine the caspase responsible.

IC50 of etoposide, fold lower in cells pre-treated with 2 (SJSA-1; 2 added 6 hours before etoposide): 726 fold
pIC50 (SJSA-1; Homo sapiens, MTT, 72 hours, Table 5, read-out: IC50, agent alone): 4.85
SMILES: O=[N+]([O-])c1cc(S(=O)(=O)Nc2ccc(Cl)cc2)sc1Cl [Compound 2, 5-Chloro-4-nitrothiophene-2-sulfonic acid (4-chlorophenyl)-amide]
potency increase of cisplatin (SJSA-1; 2 added prior to the treatment with cisplatin): 357 fold
HDM2 and E2F-1 protein levels ([1]; AGS, H1299, MCF7 or SJSA1 cells, five times the anti-proliferative IC50): rapid reduction in HDM2 and E2F-1 levels
JNK phosphorylation ([1]; MCF7 cells): transient induction in JNK phosphorylation
p38 MAPK pathway induction ([1]; MCF7 cells): no clear induction of the p38 MAPK pathway
p53 level and p53 phosphorylation at serine 15 ([1]; compound 2: AGS, H1299, MCF7 or SJSA1 cells, etoposide or cisplatinum: AGS or MCF7 cells): no induction of p53 nor p53 phosphorylation at serine 15
PARP cleavage / PARP levels ([1]; five times IC50, 85-kDa cleavage product marker for apoptosis): very rapid in H1299 cells but less so in AGS, MCF7 or SJSA1 cells
cell rounding [2]: Rapid cell rounding was detected in all cell types tested
cell cycle arrest (MCF7 or H1299 cells): no detectable arrest at any phase of the cell cycle
sub-G1 cells, indicative of apoptosis (MCF7 or H1299 cells): induced sub-G1 cells
caspase activity (H1299 cells): detected by four hours
